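Interpolation was linear, between the two tested concentrations surrounding the appropriate level; five concentrations were tested over 48 hours in 96-well plates. GI50: concentration for 50% inhibition of growth.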 Calls of active or inactive are those of the source. Rule as the data show it: active = GI50 up to about 1.1 µM and inactive = higher.
What was measured:
Experiment in all cases: NCI-60 cell line screen, 48 h
[1] = tested on: CAKI-1
[2] = tested on: PC-3
[3] = tested on: T47D
[4] = tested on: U-251
[5] = tested on: HOP-92
[6] = tested on: HT-29
[7] = tested on: NCI-H23
[8] = tested on: LOX IMVI
[9] = tested on: NCI-H460
[10] = tested on: UACC-257
[11] = tested on: MCF7
[12] = tested on: EKVX
[13] = tested on: SN12C
[14] = tested on: MDA-MB-231
[15] = tested on: M14
[16] = tested on: UACC-62
[17] = tested on: HOP-62
[18] = tested on: SR
[19] = tested on: TK-10
[20] = tested on: OVCAR-4

Measured: GI50

CCOC(=O)CC[C@@H](NC(=O)c1ccc(NCc2ccc3nc(OC)c(OC)nc3c2)cc1)C(=O)OCC
inactive: [1] > 83.9 µM | [2] 56.8 µM | [3] 19.1 µM | [4] > 100 µM | [5] 11.4 µM | [6] > 72.8 µM | [7] > 83.2 µM | [8] 38.9 µM | [9] 20.6 µM | [10] 15.7 µM | [11] 25.5 µM | [12] > 78.3 µM | [13] 52 µM | [14] 36.1 µM | [15] 16.3 µM | [16] 15.5 µM | [17] > 77.4 µM | [18] 25.1 µM | [19] 60.5 µM | [20] 38.9 µM

O=C(O)CCCSc1nc2ccccc2s1
inactive: [1] > 100 µM | [2] > 100 µM | [3] > 100 µM | [4] > 100 µM | [5] > 100 µM | [6] > 100 µM | [7] > 100 µM | [8] > 100 µM | [9] > 100 µM | [10] > 100 µM | [11] > 100 µM | [12] > 100 µM | [13] > 100 µM | [14] > 100 µM | [15] > 100 µM | [16] > 100 µM | [17] > 100 µM | [18] > 100 µM | [19] > 100 µM | [20] > 100 µM

CC1(C)C=[N+]([O-])C(C)(C)N1
inactive: [1] > 100 µM | [2] > 100 µM | [3] > 100 µM | [4] > 100 µM | [5] > 100 µM | [6] > 100 µM | [7] > 100 µM | [8] > 100 µM | [9] > 100 µM | [10] > 100 µM | [11] > 100 µM | [12] > 100 µM | [13] > 100 µM | [14] > 100 µM | [15] > 100 µM | [16] > 100 µM | [17] > 100 µM | [18] > 100 µM | [19] > 100 µM | [20] > 100 µM

CC1(C)O[C@@H]2COC(=O)[C@@H]2O1
inactive: [1] > 100 µM | [2] > 100 µM | [3] > 100 µM | [4] > 100 µM | [5] > 100 µM | [6] > 100 µM | [7] > 100 µM | [8] > 100 µM | [9] > 100 µM | [10] > 100 µM | [11] > 100 µM | [12] > 100 µM | [13] > 100 µM | [14] > 100 µM | [15] > 100 µM | [16] > 100 µM | [18] > 100 µM | [19] > 100 µM | [20] > 100 µM

Cn1c2c(c3ccccc31)CC(=O)N1CCCCC1C21OCCO1 (stereo unspecified)
inactive: [1] > 100 µM | [2] > 100 µM | [3] > 100 µM | [4] > 100 µM | [5] > 100 µM | [6] > 100 µM | [7] > 100 µM | [9] > 100 µM | [10] > 100 µM | [11] > 100 µM | [12] > 100 µM | [13] > 100 µM | [14] > 100 µM | [15] > 100 µM | [16] > 100 µM | [17] > 100 µM | [18] > 100 µM | [19] > 100 µM | [20] > 100 µM

CCN(CC)C(=O)C1=C(C)NC(C)=C(C(=O)N(CC)CC)C1
inactive: [1] > 100 µM | [2] > 100 µM | [3] 58.1 µM | [4] > 100 µM | [5] > 100 µM | [7] > 100 µM | [8] > 100 µM | [9] > 100 µM | [10] > 100 µM | [11] > 100 µM | [12] > 100 µM | [13] > 100 µM | [14] 39.4 µM | [15] > 100 µM | [16] > 100 µM | [17] > 100 µM | [18] > 100 µM | [19] > 100 µM | [20] > 100 µM

CC(C)CC(N)C(=O)NC(C(=O)NC(CCCNC(=N)N)C(=O)NC(CS)C(=O)NC1CSCC(C(=O)NC(Cc2ccccc2)C(=O)NC(C(=O)NC(CCCNC(=N)N)C(=O)O)C(C)C)NC(=O)C2CCCN2C(=O)C(CCCCN)NC(=O)C2CCCN2C(=O)C2CCCN2C(=O)C(Cc2ccc(O)cc2)NC(=O)C(CO)NC(=O)C(CCCCN)NC(=O)C(C(C)O)NC(=O)C(Cc2c[nH]c3ccccc23)NC1=O)C(C)C (stereo unspecified)
inactive: [1] > 25 µM | [2] > 25 µM | [3] > 25 µM | [4] > 25 µM | [5] > 25 µM | [6] > 25 µM | [7] > 25 µM | [8] > 25 µM | [10] > 25 µM | [11] > 25 µM | [12] > 25 µM | [13] > 25 µM | [14] > 25 µM | [15] > 25 µM | [16] > 25 µM | [17] > 25 µM | [18] > 25 µM | [19] > 25 µM | [20] > 25 µM

Source: ChEMBL document CHEMBL1201862, “PubChem BioAssay data set” (2004)
